Experimental data reported in ChEMBL document CHEMBL1136902, “Binaphthyl scaffolded peptoids via ring-closing metathesis reactions and their anti-bacterial activities” (2009).
Values after ≈ are worked out from the molar mass of the structure shown.

The compounds below were run on Staphylococcus aureus (assay: Antibacterial activity against Staphylococcus aureus ATCC 6538).
Assay type: functional

Row | MIC [µg/mL] | SMILES
1 | 125 (≈ 275 µM) | COC(=O)[C@H]1C/C=C/Cn2cc(c3ccccc32)CCCC(=O)N[C@H](CCCCN)C(=O)N1
2 | 125 (≈ 284 µM) | COC(=O)[C@H]1C/C=C/Cn2cc(c3ccccc32)CCC(=O)N[C@H](CCCCN)C(=O)N1
3 | 7 (≈ 10.1 µM) | COC(=O)[C@@H]1C/C=C/Cc2cc3ccccc3c(c2OC)-c2c(OC)c(cc3ccccc23)CC(NC(C)=O)C(=O)N[C@H](CCCCN)C(=O)N1 (stereo partly specified)
4 | 4 | C=CCOc1ccc2ccccc2c1-c1c(OCC(=O)N[C@H](CCCCN)C(=O)N[C@H](CC=C)C(=O)OC)ccc2ccccc12.Cl
5 | 32 | C=CCOc1ccc2ccccc2c1-c1c(OCC(=O)N[C@H](CCCCN)C(=O)OC)ccc2ccccc12.Cl
6 | 62.5 (≈ 121 µM) | COC(=O)C1C/C=C\COc2ccc(cc2)CC(NC(C)=O)C(=O)NC(CCCCNC(=N)N)C(=O)N1 (stereo unspecified)
7 | 8 | COC(=O)[C@@H]1C/C=C\COc2ccc3ccccc3c2-c2c(ccc3ccccc23)OCC(=O)N[C@H](CCCCNC(=N)N)C(=O)N1.Cl
8 | 15 | C=CCOc1ccc2ccccc2c1-c1c(OCCCC(=O)N[C@H](CCCCN)C(=O)N[C@H](CC=C)C(=O)OC)ccc2ccccc12.Cl
9 | 62.5 (≈ 132 µM) | COC(=O)C1CC=CCOc2ccc(cc2)C[C@H](NC(C)=O)C(=O)N[C@@H](CCCCN)C(=O)N1 (stereo partly specified)
10 | 15 (≈ 23.7 µM) | COC(=O)[C@@H]1C/C=C/Cc2ccc3c(c2)c2cc(ccc2n3C(=O)OC(C)(C)C)[C@H](NC(C)=O)C(=O)N[C@H](CCCCN)C(=O)N1
11 | 15 | COC(=O)[C@@H]1C/C=C\COc2ccc3ccccc3c2-c2c(ccc3ccccc23)OCC(=O)N[C@H](CCCCN)C(=O)N1.Cl
12 | 8 | C=CCOc1ccc2ccccc2c1-c1c(OCC(=O)N[C@H](CCCCNC(=N)N)C(=O)N[C@H](CC=C)C(=O)OC)ccc2ccccc12.Cl
13 | 8 | C=CCOc1ccc2ccccc2c1-c1c(OCCCC(=O)N[C@H](CCCCNC(=N)N)C(=O)N[C@H](CC=C)C(=O)OC)ccc2ccccc12.Cl
14 | 125 (≈ 293 µM) | COC(=O)[C@H]1C/C=C/Cn2cc(c3ccccc32)CC(=O)N[C@H](CCCCN)C(=O)N1
15 | 62.5 (≈ 124 µM) | COC(=O)C1CC=CCOc2ccc(cc2)C[C@H](NC(C)=O)C(=O)N[C@@H](CCCNC(=N)N)C(=O)N1 (stereo partly specified)

Row | SMILES | MIC [µg/mL]
16 | CN[C@H](CC(C)C)C(=O)N[C@H]1C(=O)N[C@@H](CC(N)=O)C(=O)N[C@H]2C(=O)N[C@H]3C(=O)N[C@H](C(=O)N[C@H](C(=O)O)c4cc(O)cc(O)c4-c4cc3ccc4O)[C@H](O)c3ccc(c(Cl)c3)Oc3cc2cc(c3O[C@@H]2O[C@H](CO)[C@@H](O)[C@H](O)[C@H]2O[C@H]2C[C@](C)(N)[C@H](O)[C@H](C)O2)Oc2ccc(cc2Cl)[C@H]1O [VANCOMYCIN] | 1.95 (≈ 1.35 µM)
